BindingDB's records for doi:10.1073/pnas.93.10.4661 (Amgen, 1996)

Experiments:
Pro-neuropeptide Y [1] = target: Pro-neuropeptide Y (Rattus norvegicus, UniProt P07808)
Pro-neuropeptide Y [2] = target: Pro-neuropeptide Y (Homo sapiens, UniProt P01303)

Row | Ki (Pro-neuropeptide Y [1]) [nM] | Ki (Pro-neuropeptide Y [2]) [nM] | Compound
1 | 0.3 | 1.9 | CC[C@H](C)[C@H](NC(=O)[C@H](Cc1ccc(O)cc1)NC(=O)[C@H](CCCNC(=N)N)NC(=O)[C@H](CCCNC(=N)N)NC(=O)[C@H](CC(C)C)NC(=O)[C@H](CC(=O)O)NC(=O)[C@H](C)NC(=O)[C@H](C)NC(=O)[C@H](Cc1ccc(O)cc1)NC(=O)[C@H](CCC(N)=O)NC(=O)[C@H](C)NC(=O)[C@H](CCSC)NC(=O)[C@H](CCC(N)=O)NC(=O)[C@H](CCC(=O)O)NC(=O)[C@@H]1CCCN1C(=O)[C@@H](NC(=O)[C@H](C)NC(=O)[C@H](CC(N)=O)NC(=O)[C@H](CC(=O)O)NC(=O)CNC(=O)[C@@H]1CCCN1C(=O)[C@H](Cc1ccc(O)cc1)NC(=O)[C@@H](NC(=O)[C@@H]1CCCN1C(=O)[C@H](CCC(=O)O)NC(=O)[C@H](CC(C)C)NC(=O)[C@@H]1CCCN1C(=O)[C@H](C)N)C(C)C)[C@@H](C)O)C(=O)N[C@@H](CC(N)=O)C(=O)N[C@@H](CCSC)C(=O)N[C@@H](CC(C)C)C(=O)N[C@H](C(=O)N[C@@H](CCCNC(=N)N)C(=O)N1CCC[C@H]1C(=O)N[C@@H](CCCNC(=N)N)C(=O)N[C@@H](Cc1ccc(O)cc1)C(N)=O)[C@@H](C)O [CAS_59763-91-6]
2 | 0.4 | 139 | CC[C@H](C)[C@H](NC(=O)[C@H](Cc1ccc(O)cc1)NC(=O)[C@H](CCCNC(=N)N)NC(=O)[C@H](CCCNC(=N)N)NC(=O)[C@H](CC(C)C)NC(=O)[C@H](CCC(N)=O)NC(=O)[C@@H](NC(=O)[C@H](CCC(=O)O)NC(=O)[C@H](Cc1ccc(O)cc1)NC(=O)[C@H](CCC(N)=O)NC(=O)[C@H](C)NC(=O)[C@H](CCCNC(=N)N)NC(=O)[C@H](CCC(N)=O)NC(=O)[C@H](CCC(=O)O)NC(=O)[C@H](Cc1c[nH]cn1)NC(=O)[C@@H](NC(=O)[C@H](C)NC(=O)[C@H](Cc1ccc(O)cc1)NC(=O)[C@H](CC(=O)O)NC(=O)CNC(=O)[C@@H]1CCCN1C(=O)[C@H](Cc1ccc(O)cc1)NC(=O)[C@H](CCSC)NC(=O)[C@@H]1CCCN1C(=O)[C@H](CCC(=O)O)NC(=O)[C@H](CC(C)C)NC(=O)[C@@H]1CCCN1C(=O)[C@H](C)N)[C@@H](C)O)[C@@H](C)O)C(=O)N[C@@H](CC(N)=O)C(=O)N[C@H](C(=O)N[C@@H](CC(C)C)C(=O)N[C@H](C(=O)N[C@@H](CCCNC(=N)N)C(=O)N1CCC[C@H]1C(=O)N[C@@H](CCCNC(=N)N)C(=O)N[C@@H](Cc1ccc(O)cc1)C(N)=O)[C@@H](C)O)[C@@H](C)O [NSC_41735]
3 | – | 2.3 | H-APLEPEYPGDNATPEQMAQYAAELRRYINMLTRPRY-NH2 [CAS_59763-91-6]
